Test results reported in patent US9173951B2, “Carbohydrate-based drug delivery polymers and conjugates thereof” (NEKTAR THERAPEUTICS, priority 2008, dated 2015).

Tested on: db/db diabetic mice
Assay: Blood glucose levels in db/db diabetic mice after i.p. injection
Format: in vivo
Experimental: Blood glucose levels were measured At different time points after dosing.
Study Procedure: Animals were acclimated to researcher's handling procedures. Baseline glucose levels were measured prior to drug administration. Outlier animals with glucose level <300 or >600 mg/dL were excluded from the study. Animals were assigned randomly to different groups, as follows:
At different time points (1, 2, 4, 8, and 24 hrs), blood was collected by tail clipping, and glucose level was measured using a One Touch® Ultra glucometer (Johnson & Johnson; Life Scan Ltd.)

For dextran-butyrALD-40K-insulin [20b], the “Glucose level, mean” value (250 ug/mouse ip, 1 hr) was 263+39 mg/dL, the “reduction of glucose level vs time 0” value (250 ug/mouse ip, 1 hr) was 47% and the “Glucose level, mean” value (250 ug/mouse ip, 1 hr, listed as Dex-Ins) was 263 mg/dL. For the same substance, the “Glucose level, mean” value (250 ug/mouse ip, 2 hr) was 192+36 mg/dL, the “reduction of glucose level vs time 0” value (250 ug/mouse ip, 2 hr) was 61% and the “Glucose level, mean” value (250 ug/mouse ip, 2 hr, listed as Dex-Ins) was 192 mg/dL. For the same substance, the “Glucose level, mean” value (250 ug/mouse ip, 4 hr) was 462 mg/dL, the “Glucose level, mean” value (250 ug/mouse ip, 8 hr) was 494 mg/dL and the “Glucose level, mean” value (250 ug/mouse ip, 24 hr) was 517 mg/dL. For the same substance, the “Glucose level, mean” value (250 ug/mouse ip, time 0 (baseline)) was 495+32 mg/dL and the “Glucose level, mean” value (250 ug/mouse ip, time 0 (baseline), listed as Dex-Ins) was 495 mg/dL.
In the case of insulin, the “Glucose level, mean” value (5 ug/mouse ip, 1 hr) is reported as 265 mg/dL, the “reduction of glucose level vs time 0” value (5 ug/mouse ip, 1 hr) is reported as 48% and the “Glucose level, mean” value (5 ug/mouse ip, 2 hr) is reported as 352 mg/dL. For the same substance, the “reduction of glucose level vs time 0” value (5 ug/mouse ip, 2 hr) was 31%, the “Glucose level, mean” value (5 ug/mouse ip, 4 hr) was 587 mg/dL and the “Glucose level, mean” value (5 ug/mouse ip, 8 hr) was 538 mg/dL. The “Glucose level, mean” value (5 ug/mouse ip, 24 hr) was 538 mg/dL, the “Glucose level, mean” value (5 ug/mouse ip, time 0 (baseline)) was 510 mg/dL and the “Glucose level, mean” value (50 ug/mouse ip, 1 hr) was 210 mg/dL. The “reduction of glucose level vs time 0” value (50 ug/mouse ip, 1 hr) was 53%, the “Glucose level, mean” value (50 ug/mouse ip, 2 hr) was 150 mg/dL and the “reduction of glucose level vs time 0” value (50 ug/mouse ip, 2 hr) was 67%. For the same substance, the “Glucose level, mean” value (50 ug/mouse ip, 4 hr) was 550 mg/dL, the “Glucose level, mean” value (50 ug/mouse ip, 8 hr) was 558 mg/dL and the “Glucose level, mean” value (50 ug/mouse ip, 24 hr) was 541 mg/dL. The “Glucose level, mean” value (50 ug/mouse ip, time 0 (baseline)) was 445 mg/dL.
